Results on two compounds are retold here after US10001485B2, “Methods for sensitizing a quiescent cancer stem cell to a BCR-ABL inhibitor” (The Regents of the University of California, priority 2011, dated 2018).

Test [1] concerns BC LSC (human BC CML CD34+CD38+ progenitors). In words: BC LSC engraftment in vivo (FACS) in mice transplanted with human BC CML CD34+ cells. The arrangement: species or system RAG2−/−γc−/− mice. Conditions: for Mean (SEM) engraftment of CD34+CD38+ cells, Blood / Mean (SEM) engraftment of CD34+CD38+ cells, Marrow / Mean (SEM) engraftment of CD34+CD38+ cells, Spleen: 2 weeks; for effect on marrow LSC engraftment compared to vehicle treated controls: lower doses: sabutoclax 1.25 mg/kg, dasatinib 25 mg/kg. The source says:
(§1) Immunocompromised RAG2^−/−yc^−/− mice were bred and maintained in the University of California San Diego Moores Cancer Center vivarium. Neonatal mice were transplanted intrahepatically with 50,000-200,000 CD34^+ cells according to our previously published methods (see Jaiswal, S. et al. cited above and Jamieson, C. H., et al. cited above). Transplanted mice were screened for tumor formation or human engraftment in peripheral blood by FACS at 6-8 weeks post-transplant. Upon detection of tumors, peripheral blood engraftment, or at 8-12 weeks post-transplant engrafted mice were treated for 2 weeks with dasatinib (daily, 50 mg/kg/day in 50% PEG, 50% PBS by oral gavage), sabutoclax (3 days per week, 5 mg/kg/day in 10% EtOH, 10% Cremaphor EL (Sigma Aldrich) 80% PBS by IP injection), or drug vehicles. Twenty-four hours post-treatment (10-14 weeks post-transplant), mice were euthanized and single cell suspensions of hematopoietic tissues were analyzed for human engraftment by FACS as described previously (see Jaiswal, S. et al. and Jamieson, C. H., et al. cited above). For in vivo combination studies, dasatinib was used at 25 or 50 mg/kg while sabutclax was used at 1.25 or 2.5 mg/kg with the same dosing regimen described above. For serial transplantation, a mix of whole mouse bone marrows was made from mice in the same treatment group. Total bone marrow cells were then counted by using Guava ViaCount Reagent and analysis on a Guava PCA system (Millipore), and transplanted in equal numbers into secondary neonatal recipients by intrahepatic injection. 250,000 whole bone marrow cells per mouse were injected.

Test [2] has as its system BC LSC. In words: Serial transplantation of treated bone marrow into secondary recipients, survival. It is filed as in vivo, RAG2−/−γc−/− mice.
From the text: as §1

The test system of test [3] is marrow-engrafted BC LSC. In words: FACS cell cycle analysis (Ki-67/7-AAD) of bone marrow engrafted BC CML cells. It is filed as in vivo, RAG2−/−γc−/− mice. Conditions: FIG. 7. The source says:
Single cell suspensions of bone marrow cells from mice treated with sabutoclax or vehicle were immunostained with Alexa405-conjugated anti-human CD45 (Invitrogen), Alexa647-anti-human CD38 (Ab Serotec) and biotin-anti-human CD34 (Invitrogen) plus Alexa488-strepavidin (Invitrogen) in 2% fetal bovine serum/PBS-followed by live cell staining using the LIVE/DEAD® Fixable Near-IR Dead Cell Stain Kit (Invitrogen). Surface stained cells were then fixed in 70% ethanol overnight. […] Stained samples were analyzed using a FACSAria and FlowJo.

Test [4] has as its system BCL2 and MCL1. In words: Bone marrow BCL2, MCL1 and Ki67 IHC analysis of treated engrafted marrow. It is filed as in vivo, RAG2−/−γc−/− mice. Conditions: following sabutoclax treatment; data not shown. Here is the method:
For IHC, femurs were harvested from transplanted, treated animals, fixed and decalcified in Cal-Ex II (Fisher Scientific, Fair Lawn, N.J.) for 48 hrs, followed by standard tissue processing, paraffin-embedding and sectioning. Paraffin tissue sections were deparaffinized, rehydrated, and boiled in antigen retrieval solution (BD, California) (pH 6.0) for 10 min to retrieve antigen. Tissues were blocked with 5% bovine serum albumin (BSA) and 0.25% Triton X-100 in PBS for 30 min and incubated with primary antibody in PBS with 1% BSA at 4° C. for 16 h. Primary antibodies used were human CD45 (Abcam) and ki67 (BD). IHC staining was then carried out with LSAB System-HRP Kit (Dako Cytomation, Hamburg, Germany) according to manufacturer's protocol using methyl green (Sigma Aldrich) as counterstaining. […] All sections were mounted before examination using a Nikon Eclipse E600 microscope. […]
Bone specimens were fixed and mildly decalcified in Bouin's solution (Sigma-Aldrich, St. Louis, Mo.) for 8 h at room temperature, then postfixed in zinc-containing buffered formalin (Z-Fix; Anatech Ltd., Battle Creek, Mich.) for 3 days at 4° C., and embedded in paraffin. […] The Spectrum Analysis algorithm package and ImageScope analysis software (version 9; Aperio Technologies, Inc.) were applied to quantify IHC stainings.

For test [5], the system named is BC LSC-engrafted marrow. In words: TUNEL apoptosis analysis of engrafted bone marrow. The format is in vivo, RAG2−/−γc−/− mice. Conditions: following sabutoclax treatment. The source says:
For apoptosis analysis, bone marrows are stained using the ApopTag fluorescein in situ TUNEL apoptosis detection kit (Chemicon, #S7110) following the manufacturer's protocol. Sections are mounted as above. Images are acquired using an Applied Imaging Ariol SL-50 automated scanning microscope and image analysis system.

[6] abbreviates: High dose treatment (sabutoclax 2.5 mg/kg, dasatinib 50 mg/kg).
Where [7] appears, read: Low dose treatment (sabutoclax 1.25 mg/kg, dasatinib 25 mg/kg).

`Cc1nc(Nc2ncc(C(=O)Nc3c(C)cccc3Cl)s2)cc(N2CCN(CCO)CC2)n1` [Dasatinib, dasatinib]: the “Mean (SEM) engraftment of CD34+CD38+ cells, Blood” value was 3.1 (2.4) in test [1] (setting [6]) and 2.1 (0.9) in test [1] (setting [7]). For the same compound, the “Mean (SEM) engraftment of CD34+CD38+ cells, Marrow” value in test [1] (setting [6]) is 21.23 (2.4); in test [1] (setting [7]) it was 28.8 (10.7). The figures for the “Mean (SEM) engraftment of CD34+CD38+ cells, Spleen” value in test [1] (setting [6]) and in test [1] (setting [7]) were 0.2 (0.07) and 2.0 (0.8), respectively. In addition, the “effect on marrow LSC engraftment compared to vehicle treated controls” value in test [1] is reported as “no significant effect”. The “2° TP - Median survival” value in test [2] (High dose treatment) turned out to be 43 days; in test [2] (Low dose treatment) it was 79 days.
Consider `Cc1cc2c(C(=O)NC[C@H](C)c3ccccc3)c(O)c(O)cc2c(O)c1-c1c(C)cc2c(C(=O)NC[C@H](C)c3ccccc3)c(O)c(O)cc2c1O` [Sabutoclax], for which the “LSC engraftment in all hematopoietic tissues including bone marrow” value in test [1] (5 mg/kg, FIG. 5b) was “significantly reduced”. For the same compound, the “Mean (SEM) engraftment of CD34+CD38+ cells, Blood” value in test [1] (setting [6]) is 24.5 (17.6); in test [1] (setting [7]) it was 11.0 (3.8). Besides, the “Mean (SEM) engraftment of CD34+CD38+ cells, Marrow” value in test [1] (setting [6]) is 30.01 (23.2); in test [1] (setting [7]) it was 34.2 (12.5). Also, the entries for the “Mean (SEM) engraftment of CD34+CD38+ cells, Spleen” value in test [1] (setting [6]) and in test [1] (setting [7]) were 5.1 (1.5) and 12 (2.7), respectively. The “effect on marrow LSC engraftment compared to vehicle treated controls” value in test [1] is given as “no significant effect”. Besides, the “G2/S cells in engrafted marrow” value in test [3] is “slight increase”. The “2° TP - Median survival” value is recorded as 45 days in test [2] (High dose treatment) and 74 days in test [2] (Low dose treatment). In test [4], the “BCL2 and MCL1 immunopositive cells in BC LSC-engrafted marrow” value is “reduced amount”. Also, in test [5], the “TUNEL+ apoptotic cells in engrafted marrow” value is recorded as “increased”.
